Data reported in patent publication US20240424134A1, “PEPTIDE HAVING INDEPENDENTLY STABILIZED HYDROPHOBIC ALPHA HELIX, PEPTIDE COMPLEX COMPRISING SAME AND USES THEREOF” (UIF (University Industry Foundation), Yonsei University, priority 2022, published 2024).
“Also recorded” adds a separate entry of the source. Non-standard residues stand in square brackets, D forms with d. Primed or numbered codes have the meaning given here. No end group written: not given here. PEG8′ = not defined here; Aib = CC(C)(N)C(=O)O

Key:
Format in all cases: physicochemical
[1] = CD (circular dichroism) spectroscopy of α-helix structure; details: for θ222 nm/θ208 nm ratio: Table 11, peptide complexes of Examples 37-97; for [6]222/[θ]208 ratio: before magnetic field (CD), 20 μM in distilled water
Procedure: To evaluate the structures of a linear plasmid DNA and peptides, CD spectra were analyzed using a Chirascan CD spectrometer (Applied Photophysics, UK). […] The final concentration of the linear plasmid DNA was 30 ng/μL. All the samples were dissolved in H2O. For the formation of the artificial chromosome, a mixture of the peptide and the DNA was incubated for 12 days or longer. Scanning was performed using a 2-mm path-length cuvette. Each scan was repeated three times and averaged. MRE (mean residue ellipticity) was calculated based on the number of amino acid residues.
CD (circular dichroism) spectroscopy was performed as follows.
The CD spectra were analyzed using a Chirascan CD spectrometer (Applied Photophysics, UK). […] All the samples were dissolved in H2O. Each scan was repeated three times using a 2-mm path-length cuvette and averaged. MRE (mean residue ellipticity) was calculated based on the number of amino acid residues.

[2] = NMR residual dipolar couplings (RDC) under magnetic field; details: difference of 21.14 T and 16.45 T; 21 residues of α10; methanol-d3/chloroform-d
Procedure: ^1H NMR and ^2D ^1H-^15N IPAP-HSQC (in-phase/anti-phase heteronuclear single quantum coherence) NMR spectra were acquired at 298 K using a Bruker AVANCE IV 900 MHz spectrometer and a BrukerAVANCE Ill HD 700 MHz spectrometer, both equipped with cryogenic probes. The NMR sample of PEG30-α10-PEG30 was dissolved in methanol-d3/chloroform-d (1:1) containing 0.05% TFA at a concentration of 4.26 mM. The acquisition parameters of IPAP were 2048 t2×1024 t1 points, 8 scans, 0.2 second recycle delay, 14 ppm spectral width for ^1H and 26 ppm spectral width for ^15N. The acquired data were split into two data sets, IP and AP, using a TopSpin software (Bruker, Germany). […]
Anisotropic diamagnetic molecules placed in an isotropic solution are aligned when a magnetic field is applied. The behavior of the peptide according to the present disclosure under a magnetic field was analyzed. For this, RDCs (residual dipolar couplings) between ^1H-^15N amide pairs (^1DNH) were measured by NMR (nuclear magnetic resonance) at 16.45 T (700.400 MHz) and 21.14 T (900.230 MHz). […]
Specifically, ^1H NMR and ^2D ^1H-^15N IPAP-HSQC (in-phase/anti-phase heteronuclear single quantum coherence) NMR spectra were analyzed at 298 K using a BrukerAVANCE IV 900 MHz spectrometer and a BrukerAVANCE Ill HD 700 MHz spectrometer equipped with cryogenic probes. […] Peak positions were analyzed using the NMRFAM-SPARKY software.

[3] = AFM analysis of self-assembled peptide complexes; details: for Average diameter (nm) / AFM morphology: Table 12, self-assembled structure; for AFM morphology: 25 μM in distilled water
Procedure: AFM was performed using an NX10 system (Park Systems, Korea) in a non-contact mode with PPP-NCHR AFM probes (Nanosensors, Switzerland). The DNA concentration ranged from 1 to 30 ng/μL and the peptide concentration ranged from 1 to 32 μM (in H2O). 2 μL of the sample solution was cast onto a freshly cleaved mica surface and dried. The data obtained by the SmartScan program (Park Systems, Korea) was analyzed using the XEI program (Park Systems, Korea).
The CD spectroscopy was performed in the same manner as in Test Example 2 and the AFM was performed using the NX10 system (Park Systems, Korea) in a non-contact mode with PPP-NCHR AFM probes (Nanosensors, Switzerland). The peptide complex concentration ranged from 1 to 32 μM (in H2O). 2 μL of the sample solution was cast onto a freshly cleaved mica surface and dried. The data obtained by the SmartScan program (Park Systems, Korea) were analyzed using the XEI program (Park Systems, Korea).
The peptide complexes of Examples 37-40 were imaged by AFM. 25 μM of the peptide complex was dissolved in distilled water, sonicated for 5 minutes, incubated overnight and dropped on mica for measurement.

[4] = MCD (magnetic circular dichroism) under 1.6 T magnetic field; details: magnetic field of 1.6 T applied (MCD)
Procedure: (§1) MCD (magnetic circular dichroism) spectra were obtained using a Jasco-815 159-L spectrophotometer (Jasco, Japan). The concentration of the peptides was 20 μM in distilled water. Measurements were performed using a 2-mm path-length cuvette. The magnetic field of the permanent magnet in the MCD accessory (PM-491) was 1.6 T. Each scan was repeated three times and averaged.
as §1, with “peptide complex” for “peptides”
MCD (magnetic circular dichroism) analysis was performed to investigate whether the helical stability of the αm peptide in the peptide complex according to the present disclosure is affected by the magnetic field. The peptide complexes of Examples 47 and 99 have partially stable α-helices. When a magnetic field of 1.6 T was applied to the peptide complexes of Examples 47 and 99 (FIGS. 44d, 44e), the contents of α-helices, i.e. the [θ]222/[6]208 ratios, were increased in both molecules. […]

[5] = AFM of self-assembly with or without magnetic field
Procedure: AFM was performed using the NX10 system (Park Systems, Korea) in a non-contact mode with PPP-NCHR AFM probes (Nanosensors, Switzerland). The peptide complex (specimen) dispersed in an aqueous solvent was placed between neodymium magnets and measurements were compared before and after the application of a magnetic field. The magnetic field intensity was measured using a Model 450 gaussmeter (Lake Shore Cryotronics, USA).
It was confirmed that the peptide complex according to the present disclosure is highly sensitive to a magnetic field and the α-helix structure can be controlled with a magnetic field. It was also investigated whether the self-assembly process of the peptide complex is affected by a magnetic field. The peptide complexes of Examples 51 and 99 were dissolved in aqueous solvents to induce self-assembly. The aqueous solvents were sonicated to prevent aggregation for clear observation. The aqueous solvent was placed in the equipment shown in FIG. 44f and measured by AFM after incubation overnight. The AFM measurement was also made before the treatment for comparison before and after the application of the magnetic field.

[6] = in the absence of the magnetic field
[7] = Table 9, linear and cyclic αm-PEG10 peptide complexes, in H2O

Substance | θ222 nm/θ208 nm ratio [1] | Average diameter (nm) [3] | AFM morphology [3] | further results
(PEG10)3AUAUAUAUAUAUAUAUAUAUA(PEG10)3 [Example 128] | – | – | – | [θ]222/[θ]208 ([1]; Table 14, coil-rod-coil peptide complexes): 1.15; average RDC value (1DNH, exp) [2]: 2.007 Hz
Example 40: peptide complex (Wαm-RGD), SEQ ID NO 40 (AXAXAXAXAXAXAXAXAXAXAGRGDRGDG; RGD peptides; SITE 2 2-aminoisobutyric acid; SITE 4 2-aminoisobutyric acid; SITE 6 2-aminoisobutyric acid; SITE 8 2-aminoisobutyric acid; SITE 10 2-aminoisobutyric acid; SITE 12 2-aminoisobutyric acid; SITE 14 2-aminoisobutyric acid; SITE 16 2-aminoisobutyric acid; SITE 18 2-aminoisobutyric acid; SITE 20 2-aminoisobutyric acid) | 0.99 | 20-30 nm | Micelle | α-helix structure (in words) ([1]; from CD spectra): most perfect α-helix structure; average diameter ([3]; AFM): 20 nm; self-assembly behavior in an aqueous solvent ([3]; AFM): self-assembled into spherical particles such as micelles; also recorded: micelle particles; length of micelle particles ([3]; AFM, FIG. 80): 7.2-12.4 nm
Example 41: peptide complex (Wαm-RGD, Wαm-GS), SEQ ID NO 41 (A[Aib]A[Aib]A[Aib]A[Aib]A[Aib]A[Aib]A[Aib]A[Aib]A[Aib]A[Aib]AGRGDRGDRGDG) | 0.91 | 20-40 nm | Micelle | –
RAUAUAUAUA(PEG8)2 (RA[Aib]A[Aib]A[Aib]A[Aib]A-{PEG8′-PEG8′-NH2}) [Example 58] | 0.36 | – | Not assembled | –
RGDRGDAUAUAUAUAUAUAUAUAUAUAR [Example 70] | 1.14 | 50 nm | Vesicle | –
RRAUAUAUAUAUAUAUAUAUAUAGRGDRGDRGDG (RRA[Aib]A[Aib]A[Aib]A[Aib]A[Aib]A[Aib]A[Aib]A[Aib]A[Aib]A[Aib]AGRGDRGDRGDG) [Example 68] | 0.89 | 40-110 nm | Vesicle | –
RRRAUAUAUAUAUAUAUAUAUAUAGRGDRGDRGDG (RRRA[Aib]A[Aib]A[Aib]A[Aib]A[Aib]A[Aib]A[Aib]A[Aib]A[Aib]A[Aib]AGRGDRGDRGDG) [Example 69] | 0.88 | 40-260 nm | Vesicle | –
RRRRAUAUAUAUAUAUAUAUAUAUA(PEG8)2 (RRRRAXAXAXAXAXAXAXAXAXAXA; (PEG8)2 C-terminal; SITE 6 2-aminoisobutyric acid; SITE 8 2-aminoisobutyric acid; SITE 10 2-aminoisobutyric acid; SITE 12 2-aminoisobutyric acid; SITE 14 2-aminoisobutyric acid; SITE 16 2-aminoisobutyric acid; SITE 18 2-aminoisobutyric acid; SITE 20 2-aminoisobutyric acid; SITE 22 2-aminoisobutyric acid; SITE 24 2-aminoisobutyric acid) [Example 63] | 1.03 | 20-50 nm | Micelle | self-assembly behavior in an aqueous solvent ([3]; AFM): self-assembles into spherical particles
WAUAUAUAUAU(PEG2)5 [Example 99] | – | – | – | [6]222/[θ]208 ratio [4]: 1.01; self-assembled structure [5, 6]: vesicle-like spherical self-assembled structures; self-assembled structure ([5]; magnetic field (0.25 T) applied): cruciform anisotropic nanostructures; [θ]222/[θ]208 [1, 7]: 0.93; [θ]222/[θ]208 ([1]; Table 13, cyclic peptide complexes): 0.93; [6]222/[θ]208 ratio [1]: 0.89

The next lines start with results.

θ222 nm/θ208 nm ratio [1] | Average diameter (nm) [3] | Substance | AFM morphology [3] | further results
0.77 | 160-410 nm | RAUAUAUAUAUAUAUA(PEG8)2 [Example 59] | Vesicle | –
0.91 | 20-30 nm | RAUAUAUAUAUAUAUAUAUAUAGRGDRGDRGDG [Example 66] | Micelle | –
1.1 | 30-40 nm | RAUAUAUAUAUAUAUAUAUAUARGDRGDRGD [Example 64] | Micelle | –
0.94 | 20 nm | RAUAUAUAUAUAUAUAUAUAUARGDRGDRGDRGD [Example 65] | Micelle | –
1.12 | 50-100 nm | RGDRGDRGDAUAUAUAUAUAUAUAUAUAUAR [Example 71] | Vesicle | –
1.13 | 90-250 nm | RRAUAUAUAUAUAUAUAUAUAUA(PEG8)2 [Example 61] | Vesicle | –
1.08 | 110-150 nm | RRRAUAUAUAUAUAUAUAUAUAUA(PEG8)2 [Example 62] | Vesicle | –
0.84 | – | WAUAUAUAUAU(PEG2)5 [Example 47] | – | [6]222/[θ]208 ratio [4]: 0.91; self-assembled structure [5, 6]: highly uniform micelle-like spherical self-assembled structures; self-assembled structure ([5]; magnetic field (0.07 T) applied): anisotropic and unique planar nanostructures; [θ]222/[θ]208 [1, 7]: 0.84; [6]222/[θ]208 ratio [1]: 0.86
